From ChEMBL document CHEMBL1154707, “Morpholine derivatives greatly enhance the selectivity of mammalian target of rapamycin (mTOR) inhibitors” (J Med Chem, 2009)

Experiments:
[1] = Selectivity for FLAG-tagged human mTOR over PI3Kalpha
[2] = target: Serine/threonine-protein kinase mTOR (Homo sapiens, UniProt P42345); test: Inhibition of FLAG-tagged human mTOR by DELFIA method
[3] = target: Phosphatidylinositol 4,5-bisphosphate 3-kinase catalytic subunit beta isoform (Homo sapiens, UniProt P42338); test: Inhibition of PI3Kbeta
Sequence of Phosphatidylinositol 4,5-bisphosphate 3-kinase catalytic subunit beta isoform (P42338 whole entry, canonical isoform): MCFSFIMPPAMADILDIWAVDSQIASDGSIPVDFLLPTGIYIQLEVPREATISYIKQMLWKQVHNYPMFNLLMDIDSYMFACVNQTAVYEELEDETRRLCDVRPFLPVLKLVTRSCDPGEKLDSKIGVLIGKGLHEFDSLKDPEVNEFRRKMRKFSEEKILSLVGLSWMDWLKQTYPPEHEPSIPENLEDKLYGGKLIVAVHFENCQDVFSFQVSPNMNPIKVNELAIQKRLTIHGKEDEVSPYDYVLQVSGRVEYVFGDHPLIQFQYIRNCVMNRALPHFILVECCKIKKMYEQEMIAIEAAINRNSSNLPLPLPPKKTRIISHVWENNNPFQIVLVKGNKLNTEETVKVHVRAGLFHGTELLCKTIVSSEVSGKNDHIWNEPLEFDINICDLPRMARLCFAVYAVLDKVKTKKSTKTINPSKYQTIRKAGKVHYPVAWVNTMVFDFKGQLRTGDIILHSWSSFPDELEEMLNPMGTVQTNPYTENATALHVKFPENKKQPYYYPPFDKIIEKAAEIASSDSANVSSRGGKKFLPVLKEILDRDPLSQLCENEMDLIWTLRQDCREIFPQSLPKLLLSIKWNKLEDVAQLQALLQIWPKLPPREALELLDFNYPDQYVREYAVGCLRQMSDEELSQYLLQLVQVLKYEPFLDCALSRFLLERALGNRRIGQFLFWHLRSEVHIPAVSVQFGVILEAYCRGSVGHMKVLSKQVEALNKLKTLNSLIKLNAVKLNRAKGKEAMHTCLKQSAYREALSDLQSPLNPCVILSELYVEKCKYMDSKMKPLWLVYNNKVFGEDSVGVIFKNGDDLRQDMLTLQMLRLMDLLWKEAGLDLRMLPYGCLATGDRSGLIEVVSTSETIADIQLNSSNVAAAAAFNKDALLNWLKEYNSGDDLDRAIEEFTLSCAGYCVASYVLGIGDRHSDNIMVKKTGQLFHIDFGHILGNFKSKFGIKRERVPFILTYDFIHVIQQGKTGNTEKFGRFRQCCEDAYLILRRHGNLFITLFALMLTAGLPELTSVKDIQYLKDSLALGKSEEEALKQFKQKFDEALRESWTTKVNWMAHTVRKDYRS

[4] = target: T1, Phosphatidylinositol 4,5-bisphosphate 3-kinase catalytic subunit delta isoform (Homo sapiens, UniProt O00329); test: Inhibition of PI3Kdelta
T1 sequence (O00329 whole entry): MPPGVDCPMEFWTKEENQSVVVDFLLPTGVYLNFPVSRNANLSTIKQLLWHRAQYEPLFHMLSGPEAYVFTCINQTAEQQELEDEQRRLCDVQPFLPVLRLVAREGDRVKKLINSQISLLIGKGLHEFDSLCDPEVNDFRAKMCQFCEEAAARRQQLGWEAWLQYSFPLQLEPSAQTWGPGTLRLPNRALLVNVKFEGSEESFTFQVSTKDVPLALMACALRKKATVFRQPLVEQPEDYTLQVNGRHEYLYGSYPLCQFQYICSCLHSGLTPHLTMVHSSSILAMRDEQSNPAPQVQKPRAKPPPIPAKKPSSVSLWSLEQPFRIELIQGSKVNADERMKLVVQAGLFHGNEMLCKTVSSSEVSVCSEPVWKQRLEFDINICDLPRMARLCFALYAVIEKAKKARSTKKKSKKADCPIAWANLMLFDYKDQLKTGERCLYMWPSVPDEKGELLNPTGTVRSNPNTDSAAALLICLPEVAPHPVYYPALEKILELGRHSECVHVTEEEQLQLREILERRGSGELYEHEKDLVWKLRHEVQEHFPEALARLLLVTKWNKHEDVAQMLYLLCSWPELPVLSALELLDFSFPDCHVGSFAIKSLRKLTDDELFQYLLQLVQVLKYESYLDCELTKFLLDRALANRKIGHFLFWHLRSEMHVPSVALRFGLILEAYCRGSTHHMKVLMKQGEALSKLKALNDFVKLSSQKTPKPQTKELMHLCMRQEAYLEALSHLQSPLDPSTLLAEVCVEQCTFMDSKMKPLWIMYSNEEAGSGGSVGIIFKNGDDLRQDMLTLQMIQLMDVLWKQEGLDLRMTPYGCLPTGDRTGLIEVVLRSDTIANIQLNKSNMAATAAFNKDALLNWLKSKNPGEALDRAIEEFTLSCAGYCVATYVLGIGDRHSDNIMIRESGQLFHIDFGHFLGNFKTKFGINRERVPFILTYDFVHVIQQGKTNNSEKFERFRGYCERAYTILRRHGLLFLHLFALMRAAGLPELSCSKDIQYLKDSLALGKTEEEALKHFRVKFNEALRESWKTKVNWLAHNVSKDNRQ

[5] = target: Phosphatidylinositol 4,5-bisphosphate 3-kinase catalytic subunit alpha isoform (Homo sapiens, UniProt P42336); test: Inhibition of PI3Kalpha
Sequence of Phosphatidylinositol 4,5-bisphosphate 3-kinase catalytic subunit alpha isoform (P42336 whole entry, canonical isoform): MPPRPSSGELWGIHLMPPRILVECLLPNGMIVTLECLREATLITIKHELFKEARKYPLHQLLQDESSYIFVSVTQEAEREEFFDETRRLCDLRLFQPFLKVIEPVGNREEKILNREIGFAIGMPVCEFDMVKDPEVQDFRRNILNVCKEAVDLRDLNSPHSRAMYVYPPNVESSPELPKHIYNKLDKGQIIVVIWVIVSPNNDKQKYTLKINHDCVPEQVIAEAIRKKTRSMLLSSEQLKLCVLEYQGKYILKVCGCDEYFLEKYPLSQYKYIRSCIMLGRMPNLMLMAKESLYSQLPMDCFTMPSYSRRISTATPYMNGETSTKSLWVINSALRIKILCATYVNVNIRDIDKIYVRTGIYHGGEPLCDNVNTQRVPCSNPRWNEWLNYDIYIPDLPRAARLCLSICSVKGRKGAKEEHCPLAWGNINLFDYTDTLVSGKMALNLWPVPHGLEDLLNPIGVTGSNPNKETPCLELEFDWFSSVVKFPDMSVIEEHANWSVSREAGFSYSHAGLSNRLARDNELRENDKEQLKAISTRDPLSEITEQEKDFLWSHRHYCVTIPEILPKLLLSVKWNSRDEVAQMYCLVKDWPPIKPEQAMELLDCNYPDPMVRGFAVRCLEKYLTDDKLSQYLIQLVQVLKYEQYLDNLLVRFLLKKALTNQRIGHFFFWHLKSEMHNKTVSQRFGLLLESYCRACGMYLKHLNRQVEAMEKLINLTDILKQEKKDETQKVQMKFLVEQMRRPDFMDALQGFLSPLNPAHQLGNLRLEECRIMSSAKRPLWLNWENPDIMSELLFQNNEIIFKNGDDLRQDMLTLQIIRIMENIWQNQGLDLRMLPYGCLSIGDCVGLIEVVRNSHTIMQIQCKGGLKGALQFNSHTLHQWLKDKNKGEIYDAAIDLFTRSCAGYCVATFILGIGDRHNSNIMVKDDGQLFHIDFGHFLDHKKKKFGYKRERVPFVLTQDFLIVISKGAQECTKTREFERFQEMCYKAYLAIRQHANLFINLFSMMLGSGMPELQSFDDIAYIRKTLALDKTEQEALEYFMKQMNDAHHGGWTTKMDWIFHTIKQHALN

[6] = tested on: LNCaP; test: Growth inhibition of human LNCAP cells after 3 days by MTS method; format: functional, cell-based; conditions: 72 h

Compound	Ratio IC50 [1]	IC50 [2] [nM]	further results
O=C(Nc1ccc(-c2nc(N3CCOCC3)c3cnn(CC(F)(F)F)c3n2)cc1)Nc1cccnc1	43	0.23	–
CNC(=O)Nc1ccc(-c2nc(N3CCOC(C)C3)c3cnn(C4CCN(C(=O)OC)CC4)c3n2)cc1 (stereo unspecified)	116	2.3	–
CCNC(=O)Nc1ccc(-c2nc(N3CCOCC3)c3cnn(C4CCN(C(=O)OCC)CC4)c3n2)cc1	4140	0.17	–
CCNC(=O)Nc1ccc(-c2nc(N3CCOC[C@H]3C)c3cnn(C4CCN(C(=O)OCC)CC4)c3n2)cc1	4980	–	–
COC(=O)N1CCC(n2ncc3c(N4CC5CCC(C4)O5)nc(-c4ccc(NC(=O)Nc5cccnc5)cc4)nc32)CC1	5580	0.11	–
CCOC(=O)N1CCC(n2ncc3c(N4CCOC[C@H]4C)nc(-c4ccc(NC(=O)NCCF)cc4)nc32)CC1	3670	1.2	–
COC(=O)N1CCC(n2ncc3c(N4CC5CCC(C4)O5)nc(-c4ccc(NC(=O)NC5CC5)cc4)nc32)CC1	6910	0.62	IC50 [3]: > 10000 nM; IC50 [4]: 2630 nM; IC50 [5]: 4320 nM
CNC(=O)Nc1ccc(-c2nc(N3C4CCC3COC4)c3cnn(C4CCN(C(=O)OC)CC4)c3n2)cc1	19400	–	–
CCNC(=O)Nc1ccc(-c2nc(N3CC4CCC(C3)O4)c3cnn(C4CCN(C(=O)OC)CC4)c3n2)cc1	26700	0.2	IC50 [6]: 9 nM
CNC(=O)Nc1ccc(-c2nc(N3CC4CCC(C3)O4)c3cnn(C4CCN(Cc5cccnc5)CC4)c3n2)cc1	1410	0.48	–
O=C(NCCF)Nc1ccc(-c2nc(N3CC4CCC(C3)O4)c3cnn(CC(F)(F)F)c3n2)cc1	11900	0.23	–
COC(=O)N1CCC(n2ncc3c(N4C5CCC4COC5)nc(-c4ccc(NC(=O)Nc5cccnc5)cc4)nc32)CC1	11100	0.16	–
CCNC(=O)Nc1ccc(-c2nc(N3C4CCC3COC4)c3cnn(C4CCN(C(=O)OC)CC4)c3n2)cc1	8890	–	–
O=C(Nc1ccc(-c2nc(N3CC4CCC(C3)O4)c3cnn(CC(F)(F)F)c3n2)cc1)Nc1cccnc1	1820	0.19	–
O=C(Nc1ccc(-c2nc(N3C[C@@H]4C[C@H]3CO4)c3cnn(CC(F)(F)F)c3n2)cc1)Nc1cccnc1	482	1.2	–
CNC(=O)Nc1ccc(-c2nc(N3C[C@@H]4C[C@H]3CO4)c3cnn(CC(F)(F)F)c3n2)cc1	380	–	–
CNC(=O)Nc1ccc(-c2nc(N3C[C@H]4C[C@@H]3CO4)c3cnn(CC(F)(F)F)c3n2)cc1	51	–	–

Compound	Ratio IC50 [1]	IC50 [2] [nM]	further results
O=C(Nc1ccc(-c2nc(N3C[C@@H]4C[C@H]3CO4)c3cnn(CC(F)(F)F)c3n2)cc1)NC1CC1	2170	1.9	–
O=C(Nc1ccc(-c2nc(N3C[C@H]4C[C@@H]3CO4)c3cnn(CC(F)(F)F)c3n2)cc1)Nc1cccnc1	114	–	–
CCNC(=O)Nc1ccc(-c2nc(N3CCOC(C)C3)c3cnn(C4CCN(C(=O)OC)CC4)c3n2)cc1 (stereo unspecified)	360	1.9	–
COC(=O)N1CCC(n2ncc3c(N4CCOCC4)nc(-c4ccc(NC(=O)Nc5cccnc5)cc4)nc32)CC1	175	–	–
CNC(=O)Nc1ccc(-c2nc(N3CC4CCC(C3)O4)c3cnn(C4CCN(C(=O)OC)CC4)c3n2)cc1	8010	0.22	–
CCNC(=O)Nc1ccc(-c2nc(N3CCOC[C@@H]3C)c3cnn(C4CCN(C(=O)OCC)CC4)c3n2)cc1	307	1.8	–
CNC(=O)Nc1ccc(-c2nc(N3C4CCC3COC4)c3cnn(CC(F)(F)F)c3n2)cc1	2420	–	–
CCOC(=O)N1CCC(n2ncc3c(N4CCOC[C@@H]4C)nc(-c4ccc(NC(=O)NCCF)cc4)nc32)CC1	289	1.8	–
COC(=O)N1CCC(n2ncc3c(N4CCOC(C)C4)nc(-c4ccc(NC(=O)Nc5cccnc5)cc4)nc32)CC1 (stereo unspecified)	135	–	–
CNC(=O)Nc1ccc(-c2nc(N3CC4CCC(C3)O4)c3cnn(CC(F)(F)F)c3n2)cc1	3230	0.5	–
CCOC(=O)N1CCC(n2ncc3c(N4CCOC[C@H]4C)nc(-c4ccc(NC(=O)Nc5ccncc5)cc4)nc32)CC1	1850	–	–
O=C(Nc1ccc(-c2nc(N3C[C@H]4C[C@@H]3CO4)c3cnn(CC(F)(F)F)c3n2)cc1)NC1CC1	179	–	–
O=C(NCCF)Nc1ccc(-c2nc(N3CCOCC3)c3cnn(CC(F)(F)F)c3n2)cc1	524	–	–
CNC(=O)Nc1ccc(-c2nc(N3CCOCC3)c3cnn(CC(F)(F)F)c3n2)cc1	194	–	–
O=C(Nc1ccc(-c2nc(N3C4CCC3COC4)c3cnn(CC(F)(F)F)c3n2)cc1)Nc1cccnc1	1140	–	–
CCOC(=O)N1CCC(n2ncc3c(N4CCOC[C@@H]4C)nc(-c4ccc(NC(=O)Nc5ccncc5)cc4)nc32)CC1	32	0.58	–
